Source: patent publication US9073858B2, “Methods of targeted drug development” (priority 2010, dated 2015)
Like-named read-outs stand apart in the source and are kept apart here.

What was measured:
annexin V in A549 cells = settings: for % Total Apoptosis: cells in early- and late-stage apoptosis; for % Relative to Reference Cpd.: reference 4.0 μM camptothecin or 1.0 μM staurosporin
Source text: Assays that measure apoptosis are utilized to determine whether or not compounds can induce programmed cell death in cancer cells. Annexin V is a protein that is used to detect apoptosis by binding to phosphatidylserine expressed on membranes of dead or dying cells. Fluorescently tagged with FITC, it can he used in conjunction with 7-aminoactinomycin D to determine the percentage of cells undergoing apoptosis via flow cytometry. Cells in early apoptosis will emit an FITC signal which will eventually be replaced by the far red 7-AAD signal that is associated with cell membrane permeability due to necrosis.
In brief, for the Annexin V Assay, compounds were added to cells plated in 6-well plates. Treated cells were incubated for up to 30 hours before addition of fluorescent cell marker probes that detect the presence of annexin V. The percentage of cells undergoing apoptosis and necrosis were determined by flow cytometry.
On day 2, working solutions of compounds (at 1000×) were prepared. To 2.0 ml media/well was added 2 μl 1000× compound diluted in 100% DMSO for final DMSO concentration of 0.1%. On day 3, plates were incubated for 30 hrs. […] Cells were collected by centrifugation at 300×g for 5 min.
Resuspended cells were stored at 4° C. in the dark, until flow cytometry analysis.
For flow cytometry analysis of the Annexin V Assay, sample acquisition was on the BD LSR II manufactured by BD Biosciences, San Jose, Calif. […] 10,000 events werer collected based on a stopping gate of forward scatter vs side scatter light. Acquisition was done through BD FACS DiVa software version 6.1.1 on high flow rate (60 μL/min). Calculations were as follows: Quadrant 3=lower left=live cells; Quadrant 4=lower right=early apoptosis; Quadrant 2=upper right=late apoptosis; Quadrant 1=upper left=dead cells. Percent (%)Total apoptosis was calculated as early (quadrant 4)+late (quadrant 2). Percent (%) ratio apoptosis was calculated as (experimental-No treatment/positive control)*100. All statistical analyses are done using GraphPad Prism or Microsoft Excel.

[1] = Pharmacokinetics, intravenous and oral dose; parameters: species or system male CD-1 mice; settings: in vivo; for Cmax: plasma; for half-life: read-out: Half-life (t1/2; h) (converted)
Procedure: Plasma levels of the test compounds were determined by LC-MS/MS. Data was analyzed by non compartmental pharmacokinetic model by using WinNonlin.

EGFR = target: T1, EGFR (Homo sapiens, UniProt P00533); test: EGFR in-cell Western (ICW) screening protocol; format: cell-based; parameters: unit not given here; settings: initial screen
T1 construct: endogenous in cells; host or cells: A431 cells (ATCC CRL-1555)
T1 sequence (P00533 25-1210): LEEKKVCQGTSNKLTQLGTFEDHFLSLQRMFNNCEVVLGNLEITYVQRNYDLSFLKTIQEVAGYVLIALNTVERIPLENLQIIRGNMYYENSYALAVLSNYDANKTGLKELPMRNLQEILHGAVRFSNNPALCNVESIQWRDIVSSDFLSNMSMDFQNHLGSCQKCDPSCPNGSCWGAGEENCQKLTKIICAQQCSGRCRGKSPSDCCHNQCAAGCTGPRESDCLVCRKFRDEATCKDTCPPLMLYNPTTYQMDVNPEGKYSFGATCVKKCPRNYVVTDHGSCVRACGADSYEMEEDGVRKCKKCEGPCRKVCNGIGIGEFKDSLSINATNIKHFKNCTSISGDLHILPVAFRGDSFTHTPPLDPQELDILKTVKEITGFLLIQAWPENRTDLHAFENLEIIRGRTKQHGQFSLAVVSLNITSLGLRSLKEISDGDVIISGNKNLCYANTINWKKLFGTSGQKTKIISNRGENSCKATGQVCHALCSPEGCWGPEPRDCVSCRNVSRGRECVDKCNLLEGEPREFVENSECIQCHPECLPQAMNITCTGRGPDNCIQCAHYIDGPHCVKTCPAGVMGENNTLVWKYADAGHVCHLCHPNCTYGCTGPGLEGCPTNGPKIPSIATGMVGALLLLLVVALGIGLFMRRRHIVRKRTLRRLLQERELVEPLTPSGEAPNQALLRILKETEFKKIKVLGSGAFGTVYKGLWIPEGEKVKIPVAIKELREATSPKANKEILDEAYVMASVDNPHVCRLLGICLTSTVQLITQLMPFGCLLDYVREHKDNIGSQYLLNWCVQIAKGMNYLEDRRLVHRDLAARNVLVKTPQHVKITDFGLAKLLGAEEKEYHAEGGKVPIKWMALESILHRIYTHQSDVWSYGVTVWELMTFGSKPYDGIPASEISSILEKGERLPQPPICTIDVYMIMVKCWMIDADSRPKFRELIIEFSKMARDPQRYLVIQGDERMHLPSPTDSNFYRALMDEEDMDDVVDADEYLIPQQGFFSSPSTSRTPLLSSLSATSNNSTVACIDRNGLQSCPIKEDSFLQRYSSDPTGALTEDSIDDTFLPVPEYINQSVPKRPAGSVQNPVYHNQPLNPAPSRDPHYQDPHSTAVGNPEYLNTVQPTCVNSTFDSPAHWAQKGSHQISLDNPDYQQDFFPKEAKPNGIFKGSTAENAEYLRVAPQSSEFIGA
How it was run: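 Serum-starved cells treated with compound 4 h at 37 °C, then stimulated with EGF (20 or 0 ng/ml solution added) in its continued presence. In-cell Western on fixed cells: phospho-EGFR (800 channel) normalised to total EGFR (700 channel), % inhibition calculated against EGF-stimulated and unstimulated no-compound wells.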

[2] = mouse, iv, 1 mg/kg, male CD-1 mice
[3] = mouse, po, 5 mg/kg, male CD-1 mice
[4] = mouse, po, 5 mg/kg, male CD-1 mice, read-out: Tmax

ICW Screen (EGFR) | SMILES | apoptosis, share of the cell population (annexin V in A549 cells; 1 μM, A549 cells, FIG. 16B) | % Total Apoptosis (annexin V in A549 cells; 1 μM, A549 cells) [%] | % Relative to Reference Cpd. (annexin V in A549 cells; 1 μM) [%] | late apoptosis, share of the cell population (annexin V in A549 cells; 10 μM, A549 cells, FIG. 16B) | % Total Apoptosis (annexin V in A549 cells; 10 μM, A549 cells) [%] | % Relative to Reference Cpd. (annexin V in A549 cells; 10 μM) [%] | AUC ([1]; male, CD-1, mouse, iv, 1 mg/kg) [ng·h/mL] | Tmax ([1]; male, CD-1, mouse, iv, 1 mg/kg) [min] | AUC ([1]; male, CD-1, mouse, po, 5 mg/kg) [ng·h/mL] | Vd [1, 2] [L/kg] | clearance [1, 2] [mL/min/kg] | Cmax [1, 2] [ng/mL] | half-life [1, 2] [min] | Cmax [1, 3] [ng/mL] | Tmax [1, 4] [min]
– | Cc1cc(Cl)cnc1NC(c1ccc(Cl)cc1Cl)c1ccc2cccnc2c1O (stereo not drawn) [AD4-13130] | greater than 50% | 32 | 178 | up to 20% | 38 | 166 | 609 | 4.98 | 278 | 3.24 | 27.3 | 669 ± 45 | 112 | 131 ± 51 | 60
– | Cc1c(Cl)cnc(NC(c2cccc(Cl)c2Cl)c2ccc3cccnc3c2O)c1F (stereo not drawn) [AD4-13192] | – | 29 | – | – | 30 | – | 1390 | 4.98 | 115 | 0.56 | 12 | 3550 ± 571 | 88.2 | 59 ± 21 | 30
23.17 | Oc1c(C(Nc2ccccn2)c2ccc(C(F)(F)F)cc2)ccc2cccnc12 (stereo not drawn) [compound 10460] | – | – | – | – | – | – | – | – | – | – | – | – | – | – | –
